According to patent US11066421B1, “Synthetic cinchona alkaloids against cancer” (Ares Pharmaceuticals, LLC, priority 2021, dated 2021):
Like-named read-outs stand apart in the source and are kept apart here.

Experiments:
NALM-6 = assay: MTT cytotoxicity assay, NALM-6; assay type: cell-based, human; settings: read-out: IC50 against NALM-6
Procedure: (§1) Human B-lineage acute lymphoblastic leukemia (ALL) cell line NALM-6 and T-lineage ALL/lymphoma cell line MOLT-3 were obtained from American Type Culture Collection (Manassas, Va.). Cell lines were propagated in RPMI 1640 supplemented with 10% FCS, 4 mM glutamine, 100 units/ml penicillin G, and […] streptomycin sulfate. All tissue culture reagents were obtained from Life Technologies Inc. (Life Technologies, Inc., Gaithersburg, Md.). Cell lines were cultivated for a minimum of two passages after thawing prior to experimentation.
(§2) The cytotoxicity of the compounds were tested against human ALL cell lines using MTT assays (Roche Molecular Biochemicals, Indianapolis, Ind.), as described previously R. K. Narla et al., 1998, Clin Cancer Res 4:1405-14). Briefly, exponentially growing tumor cells were seeded into a 96-well plate at a density of 4×10^4 cells/well and incubated in medium containing the cinchona alkaloid compounds at concentrations ranging from 0.7 to 100 μM for 48 h at 37° C. in a humidified 5% CO2 atmosphere. To each well, 10 μL of MTT (final concentration, 0.5 mg/ml) was added, and the plates were incubated at 37° C. for 4 h to allow MTT to form formazan crystals by reacting with metabolically active cells. The formazan crystals were solubilized overnight at 37° C. in a solution containing 10% SDS and 0.01 M HCl. The absorbance of each well was measured in a microplate reader (Labsystems) at 540 nm and a reference wavelength of 690 nm. To translate the A540 values into the number of live cells in each well, the A540 values were compared to those on standard A540 versus cell number curves generated for each cell line. The percentage of survival was calculated using the formula: % survival=[Live cell number (test)/Live cell number (control)]×100. The IC50 values were calculated by nonlinear regression analysis using the graphed Prism Software version 2.0 (GraphPad Software, Inc., San Diego, Calif.).

MOLT-3 = assay: MTT cytotoxicity assay, MOLT-3; assay type: cell-based, human; settings: read-out: IC50 against MOLT-3
Procedure: as §1, §2

[1] = test system: mammary tumors of MMTV/neu transgenic mice; assay: MMTV/neu transgenic mouse model of HER2+ breast cancer; assay type: in vivo; settings: 9-week observation; for tumor shrinkage and tumor growth: AP-8 2 mg/kg i.p. twice daily, paclitaxel 6.7 mg/kg, gemcitabine 33.7 mg/kg; for prevention of tumor progression compared with AP-8: paclitaxel 6.7 mg/kg i.p., gemcitabine 33.7 mg/kg i.p.
Text: The predictive value of genetically engineered mouse (GEM) models to predict the clinical effectiveness of anti-cancer drugs is well established (Richmond A, Su Y. Mouse xenograft models vs GEM models for human cancer therapeutics. Dis Model Mech. 2008; 1(2-3):78-82. doi:10.1241-2/dmm.0.000976). We used the transgenic mouse model of HER2+ chemotherapy-resistant breast cancer to examine the in vivo anti-cancer activity of AP-8. Overexpression of the wild type Neu in the mammary glands of transgenic mice induces metastatic breast cancer. Accordingly, in the MMTV/Neu transgenic strain, the wild-type neu is overexpressed in the mammary gland under the control of the MMTV long terminal repeat. This animal model has been used to analyze the efficacy of new therapeutic approaches to prevent or treat Her2/neu overexpressing malignancies (Uckun, Dibirdik). MMTV/Neu transgenic mice [FVB/N-TgN(MMTV/neu)202MUL; Jackson Laboratory, Bar Harbor, Me.] were bred to produce multiple litters in a controlled SPF environment (12 h light/12 h-dark photoperiod, 22±1° C., 60±10% relative humidity). All mice were housed in microisolator cages (Lab Products, Inc., Maywood, N.Y., USA) containing autoclaved bedding in a controlled specific pathogen-free (SPF) environment (12 h light/12 h-dark photoperiod, 22±1° C., 60±10% relative humidity). Animal studies were approved by the institutional Animal Care and Use Committee of Drug Discovery Enterprises and all animal care procedures conformed to the Guide for the Care and Use of Laboratory Animals of the National Research Council. The genotype of mice was confirmed by multiplex polymerase chain reaction (PCR) tests as previously reported (F. M. Uckun et al., 2007, Bioorganic Med. Chem. 15:800-14; I. Dibirdik et al., 2010, J Nanomed and Nanotechnol. 1:001-4).
Neu transgenic mice carrying one or more tumors were randomly placed in the study. For the evaluation of tumor kinetics, tumor-bearing mice were randomly assigned to either vehicle control or treatment groups. Tumor growth was determined by the measurement of tumors with a caliper in three dimensions three days a week and expressed as tumor volume in cubic millimeters (mm^3). Tumor volumes were calculated using the formula for the volume of a prolate spheroid, V=4/3×3.14×length/2×width/2×depth/2. Due to the large heterogeneity in transgenic tumor volumes on day 0, tumor growth for each mouse was normalized to the starting volume for that particular tumor. Therefore, each mouse also served as its own control, and the tumor growth curves were generated to show the rate of change in tumor volumes.
AP-8 (50 μg˜2 mg/kg in 50 μL DMSO as vehicle) (10 mice, 12 target mammary tumors, Initial average tumor volume=787±125 mm^3) was administered by twice daily intraperitoneal injections on 5 consecutive days per week. Paclitaxel (10 mice, 13 target mammary tumors, Initial average tumor volume=554±79 mm^3) was administered intraperitoneally on days 1, 3, and 5 of each week at a dose level of 6.7 mg/kg ([…]). Gemcitabine (13 mice, 18 target mammary tumors, Initial average tumor volume=549±60 mm^3) was administered intraperitoneally on days 1 and 8 every 4 weeks at a dose level of 33.7 mg/kg (˜1 g/m^2). Control mice (8 mice, 10 mammary tumors, Initial average tumor volume=293±61 mm^3) were treated by twice daily intraperitoneal injections of vehicle alone (50 μL DMSO) on 5 consecutive days per week. […]

Molecule | IC50 (NALM-6; 48 h) | IC50 (MOLT-3; 48 h) | further results
2,4,6-Tri(9-O-cinchonidinyl)pyrimidine [AP-2] | 11.4 µM | 5.8 µM | –
CC[C@@H]1CN2CCC1C[C@@H]2C(Oc1cc(O[C@@H](c2ccnc3ccc(OC)cc23)[C@@H]2CC3CCN2C[C@@H]3CC)nc(OC(c2ccnc3ccc(OC)cc23)[C@H]2CC3CCN2C[C@H]3CC)n1)c1ccnc2ccc(OC)cc12 (some centres unmarked) [AP-7, 2,4,6-Tri (9-O-dihydroquininyl)pyrimidine] | – | – | IC50 (NALM-6; Homo sapiens, NALM-6, 48 h): 3.3 µM; IC50 (MOLT-3; Homo sapiens, MOLT-3, 48 h): 3.5 µM
Nc1ccn([C@@H]2O[C@H](CO)[C@@H](O)C2(F)F)c(=O)n1 [gemcitabine, Gemcitabine] | – | – | tumor shrinkage and tumor growth [1]: Neither paclitaxel nor gemcitabine at the clinically applicable dose levels used in these experiments induced tumor shrinkage; prevention of tumor progression compared with AP-8 [1]: less effective than AP-8 in preventing tumor progression
C=CC1CN2CCC1CC2C(Oc1cc(OC(c2ccnc3ccc(OC)cc23)C2CC3CCN2CC3C=C)nc(OC(c2ccnc3ccc(OC)cc23)C2CC3CCN2CC3C=C)n1)c1ccnc2ccc(OC)cc12 (single isomer, unassigned) [AP-3, 2,4,6-Tri(9-O-quininyl)pyrimidine] | 3.6 µM | 4.5 µM | –
CC(=O)O[C@H]1C(=O)[C@@]2(C)[C@H]([C@H](OC(=O)c3ccccc3)[C@]3(O)C[C@H](OC(=O)[C@H](O)[C@@H](NC(=O)c4ccccc4)c4ccccc4)C(C)=C1C3(C)C)[C@]1(OC(C)=O)CO[C@@H]1C[C@@H]2O [paclitaxel, Paclitaxel] | – | – | tumor shrinkage and tumor growth [1]: Neither paclitaxel nor gemcitabine at the clinically applicable dose levels used in these experiments induced tumor shrinkage; prevention of tumor progression compared with AP-8 [1]: less effective than AP-8 in preventing tumor progression
2,4,6-Tri (9-O-dihydrocinchonidinyl)pyrimidine [AP-6] | 6 µM | 11.4 µM | –
C=CC1CN2CCC1CC2C(Oc1cc(OC(c2ccnc3ccc(OC)cc23)C2CC3CCN2CC3C=C)nc(OC(c2ccnc3ccc(OC)cc23)C2CC3CCN2CC3C=C)n1)c1ccnc2ccc(OC)cc12 (single isomer, unassigned) [AP-4, 2,4,6-Tri (9-O-quinidinyl)pyrimidine] | 2.8 µM | 3.1 µM | –
